Results on one molecule are retold here after patent publication US6306876A, “4-[aryl(8-azabicyclo[3.2.1]octan-3-yl)]aminobenzoic acid derivatives” (priority 2000, dated 2001).

The structures appear in SMILES notation.

The target in the assay is T1, delta-opioid receptor (Rattus norvegicus, UniProt P33533).
T1 construct: from tissue; host or cells: forebrain particulate (membrane) preparation of male Wistar rats (animals from Charles River, Kingston, N.Y.)
The assay is described as follows: Rat Brain Delta-Opioid Receptor Binding Assay. Also on record: species or system rat (Wistar). The note with it: rat forebrain homogenate, [3H]DPDPE, 25° C., pH 7.4; read-out: Delta K.

T1 sequence (P33533 whole entry): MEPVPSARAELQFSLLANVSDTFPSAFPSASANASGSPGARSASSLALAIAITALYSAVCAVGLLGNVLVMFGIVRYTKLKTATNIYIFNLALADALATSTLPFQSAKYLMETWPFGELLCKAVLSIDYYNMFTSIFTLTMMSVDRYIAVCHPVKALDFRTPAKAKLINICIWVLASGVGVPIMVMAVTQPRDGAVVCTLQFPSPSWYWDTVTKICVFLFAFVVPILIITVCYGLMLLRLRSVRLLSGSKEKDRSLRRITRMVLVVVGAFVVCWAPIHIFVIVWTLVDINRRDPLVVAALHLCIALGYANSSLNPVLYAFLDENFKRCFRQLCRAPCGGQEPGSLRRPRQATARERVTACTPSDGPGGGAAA

For the molecule `CN1C2CCC1CC(N(c1ccccc1)c1cccc(C(=O)OC(C)(C)C)c1)C2` (stereo not drawn) [Example 38, 1,1-Dimethylethyl 3-[phenyl(endo-8-methyl-8-azabicyclo[3.2.1]octan-3-yl)amino]benzoate], the Ki was determined as 459 nM.
